Measured values reported in patent US11297835B2, “Aqueous compositions of perillic acid compounds” (B.R.A.I.N. BIOTECHNOLOGY RESEARCH AND INFORMATION NETWORK AG, priority 2016, dated 2022).

Experiments:
[1] = tested on: Pseudomonas aeruginosa ATCC®9027; assay: MIC, microdilution method adapted from DIN EN ISO 20776-1:2006; format: cell-based; details: no growth after 24 h and 72 h
Experimental: (§1) The antimicrobial activity of sodium perillate was examined in vitro using the microdilution method adapted from DIN EN ISO 20776-1:2006. R-Perillic acid and S-perillic acid were used as reference compounds. All experiments were done in 96-well plates in a final volume of 200 μL. Stock solutions of the investigated compounds were prepared in 25 mM buffer. The procedure was conducted as following: 4 μL of the particular stock solution were mixed with 196 μL culture medium containing a defined inoculum of the respective target strain. Sterile controls (not inoculated) and growth controls (buffer in-stead of compound added) were performed. All compound concentrations were tested in triplicate. The following strains were examined: Escherichia coli ATCC®8739, Pseudomonas aeruginosa ATCC®9027, Stapyhlococcus aureus ATCC®6538, Candida albicans ATCC®10231 and Aspergillus brasiliensis ATCC®16404. The following culture media were used: Mueller-Hinton II Bouillon (Escherichia coli, Pseudomonas aeruginosa and Staphylococcus aureus), yeast peptone dextrose (Candida albicans) and potato dextrose (Aspergillus brasiliensis). All culture media were buffered with 25 mM MES-buffer. For compound testing the plates were incubated at 37° C. (Escherichia coli, Pseudomonas aeruginosa and Staphylococcus aureus), at 28° C. (Candida albicans) and at 25° C. (Aspergillus brasiliensis). Plates were evaluated after 24 h and 72 h, respectively. The minimal inhibitory concentration is defined as the concentration where no microbial growth was observed after 24 h and 72 h incubation at the specified temperature.
(§2) Table 1 Determination of the minimal inhibition concentration (MIC, % w/v) of sodium perillate against five classical spoiling organisms under acidic (pH<6.5) and alkaline (pH>7.5) conditions using the microdilution method adapted according to DIN EN ISO 20776-1:2006. The experiments were performed in micro-well plates in a final volume of 200 μL. MIC-values are given according to the following letter code. A>1% w/v, B=0.5-1% w/v, C=0.1-0.5% w/v. D<0.1% w/v.

[2] = tested on: Aspergillus brasiliensis ATCC®16404; assay: as above; format: cell-based; details: pH <6.5; no growth after 24 h and 72 h
Experimental: as §1, §2

[3] = tested on: Escherichia coli ATCC®8739; assay: as above; format: cell-based; details: no growth after 24 h and 72 h
Experimental: as §1, §2

[4] = tested on: Candida albicans ATCC®10231; assay: as above; format: cell-based; details: no growth after 24 h and 72 h
Experimental: as §1, §2

[5] = tested on: Staphylococcus aureus ATCC®6538; assay: as above; format: cell-based; details: no growth after 24 h and 72 h
Experimental: as §1, §2

pKa = format: physicochemical; details: weak acid of which sodium perillate is the salt

MIC ([1]; pH <6.5)	MIC ([1]; pH >7.5)	MIC [2]	MIC ([3]; pH <6.5)	MIC ([3]; pH >7.5)	MIC ([4]; pH <6.5)	MIC ([4]; pH >7.5)	MIC ([5]; pH <6.5)	MIC ([5]; pH >7.5)	pKa (pKa)	Compound
B (B=0.5-1% w/v)	A (A>1% w/v)	D (D<0.1% w/v)	C (C=0.1-0.5% w/v)	B (B=0.5-1% w/v)	D (D<0.1% w/v)	C (C=0.1-0.5% w/v)	D (D<0.1% w/v)	B (B=0.5-1% w/v)	–	C=C(C)[C@H]1CC=C(C(=O)O)CC1 [R-Perillic Acid, R-Perillic acid]
–	–	–	–	–	–	–	–	–	4.96	C=C(C)[C@@H]1CC=C(C(=O)O)CC1 [perillic acid]
